Earlier results as cited in patent US20250177439A1, “LOW DOSE PRE-MIX FEED FOR TRACE MINERAL SUPPLEMENTATION” (Chemlock Operating LLC d/b/a Chemlock Nutrition, priority 2023, published 2025).

Settings: 105-140 ppm zinc compared to 132-177 pmm of zinc

## Zinc chloride hydroxide monohydrate [zinc hydroxy chloride]
  skin strength: enhanced the skin strength
